Assay: Saturated solution of DDP or DCP in phosphate and borate buffers
Type: physicochemical
Conditions: 25° C.
Excerpt: Samples containing DDP or DCP were protected from light as a precaution.

N.N.[Cl][Pt][Cl] [DDP, cisdiamminedichloroplatinum(II)]
final concentration of saturated solution (borate buffer (pH of 7.94)): 1.3 mg/mL
final concentration of saturated solution (phosphate buffer): 1.3 mg/mL

N.N.O=C([O-])C1(C(=O)[O-])CCC1.[Pt+2] [DCP, cis-Diammine(1,1-cyclobutanedicarboxylato)platinum(II)]
final concentration of saturated solution (borate buffer (pH of 7.94)): 15.6 mg/mL
final concentration of saturated solution (phosphate buffer): 14.7 mg/mL

Reference: patent US10189773B2, “In-vivo gelling pharmaceutical pre-formulation” (MEDICUS BIOSCIENCES, LLC, priority 2010, dated 2019)
